The source made the active and inactive calls.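 How the source made its calls: active means averaged IC50 for reducing per-cell lipid droplet stain intensity under a set limit; inactive means the rest.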
Tested on: AML12 mouse hepatocytes, BODIPY lipid droplet imaging
Experiment: lipid droplet accumulation inhibition in liver cells – imaging, AML12 mouse hepatocytes, BODIPY staining, SAR follow-up (AID 493092)
Conditions: cells fed 100 µM oleate overnight

COc1ccc(NC(=O)CCC(=O)Nc2cc(OC)c(NC(=O)c3cccs3)cc2OC)cc1
IC50: 0.635 µM

CCOc1ccc(CCNC(=O)Cn2nc(C)c3c(C)n(-c4ccccc4)nc3c2=O)cc1OCC
IC50: 0.336 µM

CCOc1ccc(CCNC(=O)Cn2cccc2C(=O)c2ccccc2C)cc1OCC
IC50: 0.33 µM

CCOc1ccc(CCNC(=O)CSc2cc(=O)n(C)c3cc(Cl)ccc23)cc1OCC
IC50: > 32 µM (inactive)

CCOc1ccc(CCNC(=O)c2nnc(Cc3ccc(F)cc3)o2)cc1OCC
IC50: 0.543 µM

O=C(NCc1ccc2c(c1)OCO2)c1cc(-c2ccccc2)c(N2CCOCC2)s1
IC50: 0.412 µM

CC(OC(=O)c1ccc(S(=O)(=O)C(F)F)cc1)C(=O)Nc1nc(-c2ccccc2)cs1 (centres undefined)
IC50: > 32 µM (inactive)

CCOc1ccc(C(C)NC(=O)Cc2ccccc2F)cc1OCC (centres undefined)
IC50: 0.84 µM

CCOc1ccc(C(=O)OC(C)C(=O)Nc2nc(-c3ccc(CC)cc3)cs2)cc1OCC (centres undefined)
IC50: < 0.0625 µM

COc1cccc(NC(=O)CCC(=O)Nc2cc(OC)c(NC(=O)c3cccs3)cc2OC)c1
IC50: 0.197 µM

COc1ccc(CNC(=O)CN2C(=O)NC(C)(c3cccc4ccccc34)C2=O)cc1OC (centres undefined)
IC50: 1.17 µM

CCOc1ccc(CCNC(=O)CCc2nc(-c3ccc(OC)cc3)no2)cc1OCC
IC50: 0.302 µM

CCOc1ccc(CCNC(=O)Nc2ccccc2)cc1OCC
IC50: 0.257 µM

Cc1ccc(C(=O)OC(C)C(=O)Nc2nc(-c3cccc([N+](=O)[O-])c3)cs2)cc1 (centres undefined)
IC50: 17 µM (inactive)

CCOc1ccc(C(=O)OCC(=O)Nc2nc(OC)cc(OC)n2)cc1OCC
IC50: 0.591 µM

CC(Sc1nnc(Nc2ccccc2)s1)C(=O)Nc1nc(-c2ccccc2)cs1 (centres undefined)
IC50: 3.68 µM

CC(OC(=O)c1ccc(F)cc1)C(=O)Nc1nc(-c2cccc([N+](=O)[O-])c2)cs1 (centres undefined)
IC50: > 32 µM (inactive)

CC(OC(=O)c1ccc(O)cc1)C(=O)Nc1nc(-c2ccccc2)cs1 (centres undefined)
IC50: > 32 µM (inactive)

CCOc1ccc(CN(C)C(=O)CNC(=O)Cc2cccc3ccccc23)cc1
IC50: 0.168 µM

COc1ccc(CCNC(=O)Nc2ccccc2C#N)cc1OC
IC50: > 32 µM (inactive)

Cc1ccc(C(=O)NCC(=O)NCCCc2ccccc2)cc1
IC50: > 32 µM (inactive)

COc1ccc(-c2csc(NC(=O)c3ccc(OCC(=O)N4CCOCC4)c(OC)c3)n2)cc1OC
IC50: 1.02 µM

Cc1cc(N2CCOCC2)n2ncc(-c3ccc(F)cc3)c2n1
IC50: 2.12 µM

CCOc1ccc(CCNC(=O)CSc2cc(=O)n(C)c3ccccc23)cc1OCC
IC50: 0.496 µM

CCOc1ccc(C(=O)OCC(=O)Nc2cc(C)on2)cc1OCC
IC50: 0.864 µM

CCOc1ccccc1NC(=O)CCCNC(=O)Cn1cnc2sc(C)c(C)c2c1=O
IC50: 8.67 µM (inactive)

COc1ccc(CCNC(=O)Nc2ccccc2C(F)(F)F)cc1OC
IC50: > 32 µM (inactive)

Cc1cc(N2CCOCC2)n2nc(C)c(-c3ccccc3)c2n1
IC50: 0.217 µM

Cc1nn2c(N3CCOCC3)c3c(nc2c1-c1ccccc1)CCC3
IC50: 21.6 µM (inactive)

COc1cc(OC)cc(C(=O)NCC(=O)NC(C)CCc2ccccc2)c1 (centres undefined)
IC50: > 32 µM (inactive)

Cc1ccc(-c2c(C)nn3c(N4CCOCC4)cc(C)nc23)cc1
IC50: 0.246 µM

O=C(CSCC(=O)N1CCCc2ccccc21)Nc1nc(-c2ccccc2)cs1
IC50: 11.8 µM (inactive)

COc1ccc(C(=O)OCC(=O)NC(C)CCc2ccccc2)c(OC)c1 (centres undefined)
IC50: 1.01 µM

CCCc1ccc(-c2csc(NC(=O)Cc3cccs3)n2)cc1
IC50: 0.51 µM

CCc1ccccc1NC(=O)CCC(=O)Nc1cc(OC)c(NC(=O)c2cccs2)cc1OC
IC50: 0.538 µM

COc1cc(NC(=O)c2cccs2)c(OC)cc1NC(=O)CCC(=O)Nc1cccc2ccccc12
IC50: 0.26 µM

Cc1cc(N2CCOCC2)n2nc(C(F)(F)F)c(-c3ccc(Cl)cc3)c2n1
IC50: 0.113 µM

COc1cc(NC(=O)c2cccs2)c(OC)cc1NC(=O)CCC(=O)Nc1cc(C)cc(C)c1
IC50: 0.087 µM

CCCc1cc(N2CCOCC2)n2ncc(-c3ccccc3)c2n1
IC50: 2.5 µM

CCOc1ccc(CCNC(=O)C2CC=CCC2C(=O)OC(C)C)cc1OCC (centres undefined)
IC50: 0.267 µM

CCOc1ccc(CCNC(=O)CSc2cc(=O)n(CC)c3ccccc23)cc1OCC
IC50: 1.26 µM

CCOc1ccc(CCNC(=O)COC(=O)c2cc(OC)cc(OC)c2)cc1OCC
IC50: 0.736 µM

CCOc1ccc(CCNC(=O)CCC(=O)N2CCOc3ccc(C)cc32)cc1OCC
IC50: 0.298 µM

CCOc1ccc(CCNC(=O)Cn2ncn3nc(-c4ccc(OC)cc4)cc3c2=O)cc1OCC
IC50: 0.121 µM

COc1ccc(C(=O)OCC(=O)NC(C)CCc2ccccc2)cc1OC (centres undefined)
IC50: 8.73 µM (inactive)

CCOc1ccc(NC(=O)CCC(=O)Nc2cc(OC)c(NC(=O)c3cccs3)cc2OC)cc1
IC50: 0.276 µM

CCOc1cc2c(cc1OCC)CN(C(=O)CNC(=O)c1ccc3ccccc3c1)CC2
IC50: 0.311 µM

CCOc1ccc(CCNC(=O)Cn2cccc2C(=O)c2ccccc2)cc1OCC
IC50: 0.424 µM

COc1ccc(CN(C)C(=O)CNC(=O)Cc2cccc3ccccc23)c(OC)c1OC
IC50: 2.35 µM

CC(C)Oc1ccc(C(=O)OC(C)C(=O)Nc2nc(-c3cccc([N+](=O)[O-])c3)cs2)cc1 (centres undefined)
IC50: 0.106 µM

Cc1ccc(-c2cnn3c(N4CCOCC4)cc(C)nc23)cc1
IC50: 10.6 µM (inactive)

CCCc1cc(N2CCCC2)n2nc(C)c(-c3ccccc3)c2n1
IC50: 0.7 µM

CCOc1ccc(CCNC(=O)CCC(=O)N2CCSc3ccccc32)cc1OCC
IC50: 0.0817 µM

COc1ccc(CCNC(=O)Nc2ccc(F)cc2F)cc1OC
IC50: > 32 µM (inactive)

CCOc1ccc(CCNC(=O)CCOc2cc(C)ccc2C)cc1OCC
IC50: 0.102 µM

CCOc1ccccc1C(=O)NCC(=O)NCCCc1ccccc1
IC50: > 32 µM (inactive)

CC(OC(=O)c1ccc2c(c1)OCO2)C(=O)Nc1nc(-c2cccc([N+](=O)[O-])c2)cs1 (centres undefined)
IC50: > 32 µM (inactive)

COc1ccc(C(=O)OC(C)C(=O)NC(C)CCc2ccccc2)cc1[N+](=O)[O-] (centres undefined)
IC50: 0.261 µM

COc1ccc(-c2csc(NC(=O)c3ccc(OCC(=O)N4CCOCC4)c(OC)c3)n2)cc1
IC50: 0.475 µM

CCOc1ccc(CCNC(=O)Nc2cccc(OC)c2)cc1OCC
IC50: 0.134 µM

CC1CC(C)CN(C(=O)c2ccc3c(c2NCCO)C(=O)c2ccccc2C3=O)C1 (centres undefined)
IC50: 0.782 µM

CCOc1ccccc1NC(=O)CCC(=O)Nc1ccccc1OCC
IC50: 1.54 µM

CCOc1ccc(CCNC(=O)CN2CCN(Cc3ccccc3C)C2=O)cc1OCC
IC50: 0.555 µM

O=C(CNC(=O)c1cccc(Br)c1)NCCCc1ccccc1
IC50: > 32 µM (inactive)

CCOc1ccc(CCNC(=O)CCc2nnc3ccc(N4CCCCC4)nn23)cc1OCC
IC50: 0.366 µM

COc1ccccc1NC(=O)C1CCN(C(=O)NCc2ccccc2)CC1
IC50: 3.23 µM

CC(OC(=O)c1cccc([N+](=O)[O-])c1)C(=O)Nc1nc(-c2ccccc2)cs1 (centres undefined)
IC50: > 32 µM (inactive)

CCOc1ccc(CN(C)C(=O)CNC(=O)c2ccc(Br)o2)cc1OC
IC50: 1.83 µM

COc1cccc(CN(C)C(=O)CNC(=O)Cc2cccc3ccccc23)c1OC
IC50: > 32 µM (inactive)

CC(=O)Nc1ccc(-c2csc(NC(=O)Cc3cccc(F)c3)n2)cc1
IC50: 2.71 µM

CCOc1cc(CNC(=O)CCCn2c(=O)c3cccn3c3cccnc32)cc(OCC)c1OCC
IC50: 0.22 µM

CCOc1cc2c(cc1OCC)C(c1ccccc1)N(c1ccccc1)C(=O)C2 (centres undefined)
IC50: 0.287 µM

CCOc1ccc(CCNC(=O)c2cc3sc(Cl)cc3n2C)cc1OCC
IC50: 0.0922 µM

COc1ccc(CCNC(=O)Nc2ccc(C(C)=O)cc2)cc1OC
IC50: > 32 µM (inactive)

CCOc1ccc(CCNC(=O)COC(=O)c2cc(OC)c(OC)c(OC)c2)cc1OCC
IC50: 0.103 µM

Cc1cc(N2CCOCC2)n2nc(C)c(-c3ccccc3Cl)c2n1
IC50: 0.41 µM

CCN(CC)S(=O)(=O)c1ccc(C(=O)NCC(=O)NCCCc2ccccc2)cc1
IC50: > 32 µM (inactive)

COc1cc(NC(=O)c2cccs2)c(OC)cc1NC(=O)CCC(=O)Nc1c(C)cccc1C
IC50: 2.2 µM

CCOc1ccc(C(=O)NCC(=O)NC(C)CCc2ccccc2)cc1OCC (centres undefined)
IC50: 0.688 µM

CC1CCCN(C(=O)c2ccc3c(c2NCCO)C(=O)c2ccccc2C3=O)C1 (centres undefined)
IC50: 2.25 µM

Cc1sc(NC(=O)Cc2ccc3c(c2)OCO3)nc1-c1ccc2c(c1)CCN2C(=O)c1ccccc1F
IC50: > 32 µM (inactive)

COc1ccc(CN(C)C(=O)CNC(=O)Cc2cccc3ccccc23)c(OC)c1
IC50: 2.99 µM

Cc1cc(C(=O)OC(C)C(=O)Nc2nc(-c3ccccc3)cs2)c(C)o1 (centres undefined)
IC50: 0.428 µM

CCOC(=O)c1cc(CC)sc1NC(=O)C1CC(=O)NN1Cc1ccccc1 (centres undefined)
IC50: 0.338 µM

COc1ccc(CCNC(=O)Nc2cc(F)c(F)cc2Cl)cc1OC
IC50: > 32 µM (inactive)

Cc1cc(N2CCOCC2)n2ncc(-c3ccccc3)c2n1
IC50: 3.07 µM

CCOc1ccc(CN(C)C(=O)CNC(=O)c2ccc3ccccc3c2)cc1OC
IC50: 0.402 µM

Cc1nn2c(N3CCOCC3)cc(C(C)(C)C)nc2c1-c1ccc(Cl)cc1
IC50: > 32 µM (inactive)

CCCc1cc(N2CCOCC2)n2nc(C)c(-c3ccccc3)c2n1
IC50: 0.168 µM

CCOc1ccc(CCNC(=O)CCC(=O)N2CCOc3ccccc32)cc1OCC
IC50: 0.161 µM

CCOc1ccc(CCNC(=O)CN2C(=O)c3cccnc3Oc3ccc(C)cc32)cc1OCC
IC50: 0.17 µM

CCc1ccc(NC(=O)CCC(=O)Nc2cc(OC)c(NC(=O)c3cccs3)cc2OC)cc1
IC50: 0.336 µM

Cc1ccccc1C(=O)NCC(=O)NCCC(c1ccccc1)c1ccccc1
IC50: > 32 µM (inactive)

COc1cc(NC(=O)c2cccs2)c(OC)cc1NC(=O)CCC(=O)Nc1cccc2ncccc12
IC50: 4.5 µM

O=C(Nc1nc(-c2ccc(-c3ccccc3)cc2)cs1)C1CCCO1 (centres undefined)
IC50: 1.1 µM

CN(Cc1ccc2c(c1)OCO2)C(=O)CNC(=O)Cc1cccc2ccccc12
IC50: > 32 µM (inactive)

COc1ccc(Br)cc1CN(C)C(=O)CNC(=O)Cc1cccc2ccccc12
IC50: 2.08 µM

COc1ccccc1NS(=O)(=O)c1ccc(NN=Cc2c(C)nn(-c3ccccc3)c2N2CCCC2)c([N+](=O)[O-])c1
IC50: 0.887 µM

Cc1cc(N2CCOCC2)n2nc(C)c(-c3ccc(Cl)cc3)c2n1
IC50: 0.158 µM

COc1ccc(C(=O)OC(C)C(=O)Nc2cc(C(F)(F)F)ccc2Cl)c(OC)c1OC (centres undefined)
IC50: 0.439 µM

O=C(Cc1cccc2ccccc12)NCC(=O)N1CCc2ccccc2C1
IC50: > 32 µM (inactive)

CCOc1ccc(CCNC(=O)Nc2ccccc2C)cc1OCC
IC50: 0.826 µM

CCOc1ccc(CCNC(=O)c2cc(-c3ccccc3)c(N3CCOCC3)s2)cc1OCC
IC50: < 0.0625 µM

COc1ccc(C)cc1CN(C)C(=O)C(C)NC(=O)Cc1cccc2ccccc12 (centres undefined)
IC50: 1.05 µM
